Assay results as given in patent publication US12152012B2, “BRAG2 inhibitors and applications thereof” (CENTRE NATIONAL DE LA RECHERCHE SCIENTIFIQUE, priority 2018, dated 2024).

Columns and labels:
[1] = system: GM130 (cis-Golgi marker) in Hela cells; assay: Immunostaining and confocal microscopy of Hela cells; type: cell-based, human; conditions: for Reversibility of GM130 dispersion: 50 μM 30 min, then 30 min in fresh medium; for Dispersion of GM130 marker: 50 μM, 30 min
Description: (§1) FIG. 1. Bragsin2 affects Arf pathways in cells • a. Chemical structures of Bragsin1 and Bragsin2 and derivatives used in this study. Chemical synthesis and structural characterization of the compounds are described in example 6. • b. Bragsin2 disperses the TGN46 and GM130 markers. HeLa cells were treated with either DMSO (0.25%) or Bragsin2 (50 μM) for 30 min, immunostained for TGN46, GM130 or EEA1 (green channel) and analysed by confocal microscopy. Dispersion of GM130 and TGN46 by Bragsin2 is reversible. Hela cells were treated as in FIG. 1a and were incubated for an additional 30 min in fresh medium (wash panel) prior to immunostaining and confocal microscopy analysis. Expression of Arf-mCherry constructs carrying an activating mutation rescues the effect of Bragsin2. Hela cells were transfected with constitutively active Q/L mutants of Arf-mCherry. Note the difference between non-transfected cells (white asterisk) and transfected cells. Scale bars, 10 μm.
(§2) Hela cells were grown in Dulbecco's modified Eagle's medium supplemented with Glutamax™ and 10% fetal bovine serum (Invitrogen). For immunofluorescence studies, cells were grown on Labtek glass slides (Nunc) and transfected for 18 to 24 h using Lipofectamine 2000 (Invitrogen), according to the supplier's instructions. When specified, cells were treated with the indicated concentration of small molecule or corresponding volume of vehicle (DMSO) in growth medium for 30 min at 37° C.
(§3) Immunostaining procedure was as described in (Viaud, J. et al. Structure-based discovery of an inhibitor of Arf activation by Sec7 domains through targeting of protein-protein complexes. Proc Natl Acad Sci USA 104, 10370-5 (2007)) except that secondary antibody incubation was performed for 1h using Alexa 488-conjugated goat anti-mouse (1:600) or donkey anti-sheep (1:500) IgG and Alexa 647-conjugated phalloidin (1:100). Anti-GM130 was used at dilution 1:200. Images were bidirectionally recorded using an inverted Leica TCS SP8 laser-scanning confocal microscope with a 100× (N. A. 1.40) oil objective (HCX APO, Leica). Fluorochromes were detected sequentially using excitation laser lines at 488 nm (Alexa 488), 594 nm (mCherry) and 633 nm (Alexa 647). Stacks were generated using a z-step of 0.5 μm and processed using Fiji/ImageJ (Schindelin, J. et al. Fiji: an open-source platform for biological-image analysis. Nat Methods 9, 676-82 (2012)). Images are representative of at least two independent experiments.

[2] = system: TGN46 (trans-Golgi network marker) in Hela cells; assay: as above; type: cell-based, human; conditions: for Reversibility of TGN46 dispersion / Dispersion of TGN46 marker: Hela cells; for Reversibility of TGN46 dispersion: 50 μM 30 min, then 30 min in fresh medium; for Dispersion of TGN46 marker: 50 μM, 30 min; for Rescue of compound-induced TGN46 dispersion by constitutively active Arf1, Arf5, Arf6 Q/L-mCherry: transfected Hela cells
Description: as §1, §2, §3

| SMILES | Reversibility of GM130 dispersion [1] | Dispersion of GM130 marker [1] | Reversibility of TGN46 dispersion [2] | Dispersion of TGN46 marker [2] | Rescue of compound-induced TGN46 dispersion by constitutively active Arf1, Arf5, Arf6 Q/L-mCherry [2] |
| --- | --- | --- | --- | --- | --- |
| Cc1ccc2oc(C(F)(F)F)cc(=O)c2c1[N+](=O)[O-] [Bragsin1, 6-methyl-5-nitro-2-(trifluoromethyl)-4H-chromen-4-one] | reversible | disperses | reversible | disperses | rescues |
| COc1ccc2oc(C(F)(F)F)cc(=O)c2c1[N+](=O)[O-] [Bragsin2, 6-methoxy-5-nitro-2-(trifluoromethyl)-4H-chromen-4-one] | reversible | disperses | reversible | disperses | rescues |
